In one test the target is GDP-loaded KRAS-G12D (Homo sapiens, UniProt P01116, G12D). As to the kind of experiment: KRAS (GDP) biochemical TR-FRET probe displacement assay, G12D. It is filed as binding. Conditions: 2 hours at room temperature. As to the method:
(§1) • Compounds were tested for binding to GDP-loaded wild-type KRAS (WT), KRAS-G12C, KRAS-G12D, and KRAS-G12V in a 384-well assay format using a TR-FRET probe displacement assay in buffer consisting of 50 mM Hepes (pH 7.4), 150 mM NaCl. 5 mM MgCl2 and 0.005% Tween-20. 0.03 nM KRAS was used in this assay with 0.02 nM Eu-streptavidin and 12 nM Cy-5 labelled probe. Compounds were serially diluted (1:3) in DMSO. The LabCyte ECHO Acoustic dispenser was used to pre-spot the assay plates (384-well Non-Binding Surface plates, Corning, Catalog #3824) with 50 nL of compound. 5 μL of 2× enzyme concentration was added to the pre-spotted plates and incubated for 30 minutes before adding 5 μL of 2× concentration of Eu-streptavidin and Cy-5 labelled probe (10 μL final reaction volume). The plates were incubated at room temperature for 2 hours before measuring TR-FRET ratio (665 nm/615 nm) on the Envision multimode plate reader. The ratios were normalized to a positive (saturating concentration of known inhibitor) and negative (DMSO) control and plotted against the log of compound concentration. […]
On the technique in general: Time-resolved FRET reads energy transfer from a long-lived donor to a nearby acceptor.

A further test has as its target GDP-loaded KRAS-G12C (Homo sapiens, UniProt P01116, G12C). The experiment in a line: KRAS (GDP) biochemical TR-FRET probe displacement assay, G12C. It is filed as binding. Conditions: 2 hours at room temperature. Here is the method:
as §1

For test [1], the system named is cellular pERK in Kuramochi (WT KRAS) cell-line. The experiment in a line: Cell based pERK assay, Kuramochi. Conditions: Kuramochi (WT KRAS) cells, 2 hours compound incubation, HTRF Phospho-ERK1/2. As to the method:
(§2) Compounds were tested in a 384-well assay format for their ability to inhibit cellular pERK in Kuramochi (WT KRAS), MIA-PaCa-2 (KRAS-G12C), ASPC-1 (KRAS G12D), and NCI-H441 (KRAS-G12V) cell-lines. Compounds were serially diluted (1:3) in DMSO. On day −1, 80 μL of cells were plated per well in the 384 well tissue-culture plates (Greiner: Cat #781080) to seed 5000 cells per wells of AsPC-1 or 7500 cells of MIA-PaCa-2, NCI-H441, and Kuramochi cell lines in RPMI (Corning: Cat #10-040-CM) with 10% fetal bovine serum (FBS) (HyClone: Cat #SH30071-03) and IX penicillin-streptomycin-glutamate (PSG) (Corning: Cat #30-009-C1) for […] and Kuramochi cell lines and DMEM (Corning: Cat #15-018-CM) with 10% FBS and 1×PSG for MIA-PaCa-2 cell line. The plates were then incubated overnight at 37° C. and 5% CO2. On day 0, 400 nL of compound/well was added into the cell plates and mixed 5 times by pipetting using a Beckmann Biomek FX. The cell plates were then incubated for 2 hours at 37° C. and 5% CO2. HTRF Advanced Phospho-ERK1/2 (THR202/TYR204) Detection Kits (PerkinElmer: Cat #64AERPEG) were used to prepare the lysis and detection solution according to manufacturer protocol. Following the 2 hour incubation, 70 μL of medium was aspirated from the plates and 10 μL of lysis and detection solution was added to the plates using a Biotek EL406 washer and dispenser. Plates were sealed and stored overnight at room temperature. HTRF ratio (665 nm/615 nm) was read by Envision multimode reader (PerkinElmer) the next day. The TR-FRET ratios were normalized to a positive (saturating concentration of known inhibitor) and negative (DMSO) control and plotted against the log of compound concentration.

Test [2] addresses GDP-loaded wild-type KRAS (WT) (Homo sapiens, UniProt P01116). As to the kind of experiment: KRAS (GDP) biochemical TR-FRET probe displacement assay, WT. Format: binding. As to conditions: 2 hours at room temperature. Here is the method: as §1
For a further test, the target named is GDP-loaded KRAS-G12V (Homo sapiens, UniProt P01116, G12V). As to the kind of experiment: KRAS (GDP) biochemical TR-FRET probe displacement assay, G12V. It is filed as binding. As to conditions: 2 hours at room temperature. Here is the method: as §1
Sequence of GDP-loaded KRAS-G12V (P01116 1-188 isoform P01116-2 G12V): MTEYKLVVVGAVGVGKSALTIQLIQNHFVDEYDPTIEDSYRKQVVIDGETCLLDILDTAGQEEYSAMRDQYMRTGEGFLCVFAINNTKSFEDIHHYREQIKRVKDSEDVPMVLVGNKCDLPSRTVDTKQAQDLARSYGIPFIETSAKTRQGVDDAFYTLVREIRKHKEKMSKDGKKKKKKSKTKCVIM
The subject of test [3] is cellular pERK in ASPC-1 (KRAS G12D) cell-line. The experiment in a line: Cell based pERK assay, ASPC-1. As to conditions: ASPC-1 (KRAS G12D) cells, 2 hours compound incubation, HTRF Phospho-ERK1/2. Here is the method:
as §2

Test [4] concerns cellular pERK in NCI-H441 (KRAS-G12V) cell-line. As to the kind of experiment: Cell based pERK assay, NCI-H441. As to conditions: Homo sapiens; NCI-H441 (KRAS-G12V) cells, 2 hours compound incubation, HTRF Phospho-ERK1/2. Here is the method:
as §2

For test [5], the system named is cellular pERK in MIA-PaCa-2 (KRAS-G12C) cell-line. As to the kind of experiment: Cell based pERK assay, MIA-PaCa-2. As to conditions: Homo sapiens; MIA-PaCa-2 (KRAS-G12C) cells, 2 hours compound incubation, HTRF Phospho-ERK1/2; read-out: MIAPaCa2 pERK EC50. As to the method:
as §2

Read-outs that look alike come from different tables or passages of the source. A value given as a limit tells only on which side of the number the result lay.

Sequence of GDP-loaded KRAS-G12C (P01116 1-188 isoform P01116-2 G12C): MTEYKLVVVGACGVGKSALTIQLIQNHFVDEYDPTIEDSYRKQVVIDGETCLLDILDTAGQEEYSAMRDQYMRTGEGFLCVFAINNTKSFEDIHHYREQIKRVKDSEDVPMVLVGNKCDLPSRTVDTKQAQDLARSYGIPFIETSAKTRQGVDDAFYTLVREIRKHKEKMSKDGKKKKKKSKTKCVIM
Sequence of GDP-loaded wild-type KRAS (WT) (P01116 1-188 isoform P01116-2): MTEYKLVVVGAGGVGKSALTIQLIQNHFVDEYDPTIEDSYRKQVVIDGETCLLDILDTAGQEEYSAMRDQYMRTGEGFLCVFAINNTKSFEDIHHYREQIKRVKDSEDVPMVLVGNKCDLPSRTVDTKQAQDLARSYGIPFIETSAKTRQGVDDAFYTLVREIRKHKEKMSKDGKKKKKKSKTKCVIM
Sequence of GDP-loaded KRAS-G12D (P01116 1-188 isoform P01116-2 G12D): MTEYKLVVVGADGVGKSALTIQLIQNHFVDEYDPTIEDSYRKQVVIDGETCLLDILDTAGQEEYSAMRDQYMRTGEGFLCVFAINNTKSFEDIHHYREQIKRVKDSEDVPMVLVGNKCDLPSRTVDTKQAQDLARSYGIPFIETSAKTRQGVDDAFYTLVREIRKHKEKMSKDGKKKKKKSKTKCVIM

Consider `N#Cc1c(N)sc2c(F)ccc(-c3c(Cl)cc4c(N5CC6(F)CCC(F)(C5)N6)nc(OC[C@@]56CCCN5C[C@H](F)C6)nc4c3F)c12` (single isomer, unassigned) [Example 8-1], for which the half-maximal inhibitory concentration (IC50) on GDP-loaded KRAS-G12D turned out to be 1.46 nM; at GDP-loaded KRAS-G12C, 1.03 nM; in test [2] it was 0.13 nM; at GDP-loaded KRAS-G12V, 1 nM. Besides, the figures for the EC50 in test [1] and in test [3] (read-out: AsPC1 pERK EC50) were 2.57 nM and 25.3 nM, respectively.

As for `N#Cc1c(N)sc2c(F)ccc(-c3c(Cl)cc4c(N5CC6(F)CCC(F)(C5)N6)nc(OC[C@@]56CCCN5C[C@H](F)C6)nc4c3F)c12` (single isomer, unassigned) [Example 8-2], the concentration for half-maximal inhibition (IC50) at GDP-loaded KRAS-G12D amounted to 43 nM; at GDP-loaded KRAS-G12C it was 23.3 nM; in test [2], 3.31 nM; on GDP-loaded KRAS-G12V it was 50.1 nM. For the same molecule, the half-maximal effective concentration (EC50) in test [1] is 79.8 nM; in test [4], 256 nM; in test [5] it was 65.4 nM; in test [3] (read-out: AsPC1 pERK EC50), 614 nM.

As to `C#Cc1c(F)ccc2cc(O)cc(-c3c(F)cc4c(N5CC6(F)CCC(F)(C5)N6)nc(OC[C@@]56CCCN5C[C@H](F)C6)nc4c3F)c12` (single isomer, unassigned) [Example 9-1], the 50% inhibitory concentration (IC50) was 0.32 nM at GDP-loaded KRAS-G12D, 0.17 nM at GDP-loaded KRAS-G12C, 0.18 nM in test [2] and 0.19 nM at GDP-loaded KRAS-G12V. Also, the EC50 in test [1] was determined as 4.25 nM; in test [3] (read-out: AsPC1 pERK EC50), 6.2 nM.

With `C#Cc1c(F)ccc2cc(O)cc(-c3c(F)cc4c(N5CC6(F)CCC(F)(C5)N6)nc(OC[C@@]56CCCN5C[C@H](F)C6)nc4c3F)c12` (single isomer, unassigned) [Example 9-2], the IC50 was found to be 97.8 nM at GDP-loaded KRAS-G12D, 66.3 nM in test [2] and 72.6 nM on GDP-loaded KRAS-G12V. The concentration giving a half-maximal response (EC50) in test [1] and in test [3] (read-out: AsPC1 pERK EC50) was over 1000 nM in each case.

In the case of `C#Cc1c(F)ccc2cc(O)cc(-c3ncc4c(N5C[C@]6(F)CC[C@](F)(C5)N6)nc(OC[C@@]56CCCN5C[C@H](F)C6)nc4c3F)c12` [Example 1-1, 4-(4-((1R,5S)-1,5-difluoro-3,8-diazabicyclo[3.2.1]octan-3-yl)-8-fluoro-2-(((2R,7aS)-2-fluorotetrahydro-1H-pyrrolizin-7a(5H)-yl)methoxy)pyrido[4,3-d]pyrimidin-7-yl)-5-ethynyl-6-fluoronaphthalen-2-ol], the IC50 at GDP-loaded KRAS-G12D came out at 0.14 nM; at GDP-loaded KRAS-G12C, 0.1 nM; in test [2] it was 0.08 nM; on GDP-loaded KRAS-G12V it was 0.11 nM. For the same molecule, the 50% effective concentration (EC50) in test [1] (2 h) was found to be 1.19 nM; in test [4], 0.83 nM; in test [5], 0.16 nM; in test [3] (Homo sapiens, ASPC1, 2 h), 4.11 nM.

As for `C#Cc1c(F)ccc2cccc(-c3ncc4c(N5CC6(F)CCC(F)(C5)N6)nc(OC[C@@]56CCCN5C[C@H](F)C6)nc4c3F)c12` [Example 1-2], the half-inhibitory concentration (IC50) on GDP-loaded KRAS-G12D was at least 100 nM; at GDP-loaded KRAS-G12C it was 38 nM; in test [2], 26.6 nM; on GDP-loaded KRAS-G12V, 84 nM. Moreover, the EC50 in test [1] (2 h) was 11.9 nM; in test [4], 66 nM; in test [5] it was 32.2 nM; in test [3] (Homo sapiens, ASPC1, 2 h), 194 nM.

`C#Cc1c(F)ccc2cc(O)cc(-c3ncc4c(N5C[C@]6(F)CC[C@](F)(C5)N6)nc(OCC56CCCN5CCC6)nc4c3F)c12` [Example 2-1, 4-(4-((1R,5S)-1,5-difluoro-3,8-diazabicyclo[3.2.1]octan-3-yl)-8-fluoro-2-((tetrahydro-1H-pyrrolizin-7a(5H)-yl)methoxy)pyrido[4,3-d]pyrimidin-7-yl)-5-ethynyl-6-fluoronaphthalen-2-ol]: the concentration for a half-maximal effect (EC50) in test [1] (2 h) worked out at 11.5 nM; in test [4] it was 17.9 nM; in test [5] it was 6.9 nM; in test [3] (Homo sapiens, ASPC1, 2 h), 71.1 nM.

`C#Cc1c(F)ccc2cc(O)cc(-c3ncc4c(N5CC6(F)CCC(F)(C5)N6)nc(OC[C@@]56CCCN5[C@H](COc5cc(C(F)(F)F)ncn5)CC6)nc4c3F)c12` [Example 2-3]: the half-inhibitory concentration (IC50) at GDP-loaded KRAS-G12D stood at 0.55 nM; on GDP-loaded KRAS-G12C it was 0.4 nM; in test [2], 0.29 nM; on GDP-loaded KRAS-G12V, 0.42 nM. The 50% effective concentration (EC50) in test [1] (2 h) is 2.55 nM; in test [4] it was 2.07 nM; in test [5], 0.19 nM; in test [3] (Homo sapiens, ASPC1, 2 h), 2.15 nM.

Turning to `C#Cc1c(F)ccc2cc(O)cc(-c3ncc4c(N5CC6(F)CCC(F)(C5)N6)nc(OC[C@@]56CCCN5[C@H](COc5cc(C(F)(F)F)cnn5)CC6)nc4c3F)c12` [Example 2-4], the IC50 on GDP-loaded KRAS-G12D was 0.36 nM; on GDP-loaded KRAS-G12C, 0.27 nM; in test [2] it was 0.21 nM; at GDP-loaded KRAS-G12V, 0.24 nM. For the same molecule, the EC50 in test [1] (2 h) amounted to 5.56 nM; in test [4] it was 9.86 nM; in test [5] it was 0.29 nM; in test [3] (Homo sapiens, ASPC1, 2 h) it was 14.9 nM.

Turning to `C#Cc1c(F)ccc2cccc(-c3ncc4c(N5C[C@]6(F)CC[C@](F)(C5)N6)nc(OCC56CCCN5CCC6)nc4c3F)c12` [Example 3-1, 4-((1R,5S)-1,5-difluoro-3,8-diazabicyclo[3.2.1]octan-3-yl)-7-(8-ethynyl-7-fluoronaphthalen-1-yl)-8-fluoro-2-((tetrahydro-1H-pyrrolizin-7a(5H)-yl)methoxy)pyrido[4,3-d]pyrimidine], the EC50 in test [1] (2 h) stood at 8.71 nM; in test [4], 117 nM; in test [5], 38.4 nM; in test [3] (Homo sapiens, ASPC1, 2 h) it was 368 nM.

Consider `CCc1c(F)ccc2cc(O)cc(-c3ncc4c(N5CC6(F)CCC(F)(C5)N6)nc(OC[C@@]56CCCN5C[C@H](F)C6)nc4c3F)c12` [Example 4-1, 4-(4-((1R,5S)-1,5-difluoro-3,8-diazabicyclo[3.2.1]octan-3-yl)-8-fluoro-2-(((2R,7aS)-2-fluorotetrahydro-1H-pyrrolizin-7a(5H)-yl)methoxy)pyridol[4,3-d]pyrimidin-7-yl)-5-ethyl-6-fluoronaphthalen-2-ol], for which the EC50 in test [1] (2 h) worked out at 1.35 nM; in test [4] it was 4.7 nM; in test [5], 2.22 nM; in test [3] (Homo sapiens, ASPC1, 2 h) it was 11.9 nM.

`CCc1c(F)ccc2cccc(-c3ncc4c(N5CC6(F)CCC(F)(C5)N6)nc(OC[C@@]56CCCN5C[C@H](F)C6)nc4c3F)c12` [Example 4-2]: the EC50 came to 53.3 nM in test [1] (2 h); 507 nM in test [4]; 301 nM in test [5]; 1030 nM in test [3] (Homo sapiens, ASPC1, 2 h).

Regarding `Fc1ccc2nc(C(F)(F)F)c(-c3c(F)cc4c(N5CC6(F)CCC(F)(C5)N6)nc(OC[C@@]56CCCN5C[C@H](F)C6)nc4c3F)n2c1` [Example 6-3], the IC50 (at GDP-loaded KRAS-G12D; on GDP-loaded KRAS-G12C; in test [2]; on GDP-loaded KRAS-G12V) was over 100 nM throughout.

On to `Cc1c(F)c(N)cc(-c2ncc3c(N4CC5(F)CCC(F)(C4)N5)nc(OC[C@@]45CCCN4C[C@H](F)C5)nc3c2F)c1C(F)(F)F` [Example 6-4], for which the IC50 at GDP-loaded KRAS-G12D is over 100 nM; at GDP-loaded KRAS-G12C, 20.1 nM; in test [2] it was 17.3 nM; at GDP-loaded KRAS-G12V, 21.6 nM. Besides, the EC50 in test [1] (2 h) turned out to be 11.3 nM; in test [3] (Homo sapiens, ASPC1, 2 h), 449 nM.

One may read the IC50 as the concentration needed to halve the response being measured. A higher IC50 goes with weaker potency. The term EC50 denotes the concentration giving half of the maximal effect.

The values above are taken from patent US20250059208A1, “KRAS MODULATING COMPOUNDS” (priority 2023, published 2025).
